Measured values published in paper PMC11219860, “A chemogenetic approach for dopamine imaging with tunable sensitivity” (Nature Communications, 2024).

Legend:
dLight1.3b [1] = assay: Multi-fiber photometry of dLight1.3b across brain regions; assay type: in vivo, mouse; conditions: mean ± SEM
Excerpt: We used a light emitting diode (LED, M470L5 Thorlabs) at the 470-nm central wavelength for excitation of dLight1.3b. To achieve stable continuous operation, LEDs were run at 80% of maximal output power corresponding to an excitation power of ~1 mW/mm^2 per fiber channel. LED light was collimated with the 16 mm condenser lens (ACL25416U-A, Thorlabs). A microscope objective (TL4x-SAP; Thorlabs) coupled excitation light into the respective array of 12-fibers (Sylex). A dichroic beamsplitter (F58-486 dual line, AHF) coupled the excitation light into the objective (TL4x-SAP, Thorlabs) and transmitted the fluorescence in the dLight1.3b emission spectral window. To separate fluorescence signals from residuals of the excitation light and to minimize auto-fluorescence generated in a broader spectral range we used an emission filter (525/50 nm, F37-516, AHF, for dLight1.3b). To image the end face of the fiber array onto the camera we used a 100-mm focal tube lens (TTL100-A, Thorlabs). […]
Fluorescence signals were expressed as percentage ΔF/F0 relative to the fluorescence baseline. The fluorescence baseline was defined as the minimal level of the signal after subtracting the auto-fluorescence baseline, that is the level of fluorescence estimated prior to the mouse connection. Because in our experiment we wanted to estimate the slow DETQ decay times, we fitted the second-order polynomial trend to the recorded fluorescence signals. […] In all measured traces we visually verified the quality of fit. […] To analyse the ΔF/F0 temporal dynamics at multiple temporal scales separately, we decomposed the fluorescence traces with the wavelet transform (cwt function, MATLAB). We separately analysed measurement traces (30 min before and 30 min after the injection). […] After we compared across independent channels and mice contribution of various temporal scales (in the range of 1−30 seconds) to the recorded ΔF/F0. […] To compare the temporal scales recorded before and after the DETQ injection, during the same session, we used a non-parametric Wilcoxon signed-rank test.

dLight1.3b [2] = target: dLight1.3b (Homo sapiens, UniProt P21728); assay: DA titrations on dLight1.3b-expressing HEK293 cells (confocal fluorescence imaging); assay type: cell-based
Experimental: Cells were transfected at 50–60% confluency in glass-bottomed dishes (either individually or in 24-well plates) using the Effectene transfection kit (Qiagen) according to manufacturer instructions, and imaged 24–48 h after transfection. The Flp-In™ T-REx™ 293 cells (Thermo Fisher) with a stably integrated dLight1.3b cassette[48] were cultured as follows: the cells were cultured using HEK293T cell medium with the addition of Blasticidin (15 µg/ml) and Hygromycin B (200 µg/ml). To induce the expression of dLight1.3b, doxycycline (500 ng/ml) was added to the culture medium for 24–48 hours. Before imaging, cells were rinsed with 1 mL of Hank’s Balanced Salt Solution (HBSS, Life Technologies) supplemented with Ca^2+ (2 mM) and Mg^2+ (1 mM), and imaged at room temperature with a final HBSS volume of either 100 µL for each individual 1.5 cm glass bottom dish, or 500 µL for 24-well plates. Time-lapse imaging was performed on an inverted Zeiss LSM 800 confocal microscope using a 488 nm laser and a 40X oil-based objective. During imaging, ligands were added in bolus on the cells using a micropipette to reach the final specified concentrations of ligand over the cells. For quantification, except otherwise noted, regions of interest (ROI) were selected manually using the threshold function of Fiji to isolate the cell membrane. Sensor response (∆F/F) was calculated as the following: (F(t)-F_base)/F_base with F(t) being the ROI fluorescence value at each time point (t), and F_base being the mean fluorescence of the 10-time points immediately prior to ligand addition.

dLight1.3b [3] = assay: NAc dLight1.3b photometry with food restriction; assay type: in vivo, mouse; conditions: DETQ 10 mg/kg
Experimental: To determine how metabolic state modulates tonic DA levels, DAT^IREScre mice expressing dLight1.3b in the NAc core were tested in either the fed state (ad libitum), the food-restricted state (mice food restricted to 90% of baseline body weight for 5–7 days), or after 4 weeks recovery from food-restriction (ad libitum). Daily food intake was measured per cage (2–3 mice per cage). […] Mice were injected i.p. with vehicle at 0 min and DETQ (10 mg/kg) 10–15 min later, then recording lasted 50 min.
For long-term recordings during optogenetic stimulation or chemogenetic inhibition linear fit was calculated across the entire recording or across the vehicle epoch; for event-related experiments fit was performed on fluorescent data obtained in the −60 to +60 s around opto events or −5 to −1 s around behavioral events. […] DA event-related responses were quantified by computing the value at the transient’s peak value and the AUC in the 0 to 10 s or 0 to 60 s period post-event onset. […] The maximal peak value of Veh-normalized ΔF/F0 after opto-onset was plotted over time and the plateau of maximal response was determined by averaging peak opto responses 5, 10, 15 and 20 min post-DETQ. […] AUC of the baseline was calculated within the +5 to +40 minutes time window post ip injection. […]

## C[C@H]1c2cccc(C(C)(C)O)c2C[C@H](CO)N1C(=O)Cc1c(Cl)cccc1Cl [DETQ, 2-(2,6-dichlorophenyl)-1-((1S,3R)-3-(hydroxymethyl)-5-(2-hydroxypropan-2-yl)-1-methyl-3,4-dihydroisoquinolin-2(1H)-yl)ethan-1-one]
dLight1.3b [1]; CPu
  peak ΔF/F0 fluorescence: 28.3 ± 6.27%
dLight1.3b [1]; NAc
  peak ΔF/F0 fluorescence: 22.3 ± 6.11%
dLight1.3b [1]; PFC
  peak ΔF/F0 fluorescence: 6.8 ± 2.39%
dLight1.3b [2]
  maximal leftward shift in the EC50 of DA: ~ 8 fold
  sensor response to DETQ in the absence of DA: could not trigger a response
dLight1.3b [2]; D1-PAM 5 μM
  effect on the DA sensitivity of dLight1.3b: strong positive allosteric effect
dLight1.3b [2]; DA 100 nM, DETQ 100 nM
  sensor fluorescence in the presence of sub-maximal DA: strong and significant increase
dLight1.3b [2]; DA 100 µM, wide range of DETQ concentrations
  maximal fluorescent response to a saturating concentration of DA: not affected
dLight1.3b [2]; DA titrations with 1 nM to 450 nM DETQ, allosteric EC50 shift, read-out: allosteric affinity constant (Kb)
  Kb: 54 nM
dLight1.3b [2]; DETQ 50 nM
  effect on sensor responses to noradrenaline (NE): potentiation
dLight1.3b [2]; allosteric EC50 shift fit
  α factor: 8.6
dLight1.3b [3]
  step-like increase in baseline fluorescence, food-restriction versus ad libitum state: significantly higher
